Assay results reported in publication PMC12677052, “Identification and rescue of congenital hyperinsulinism-associated ABCC8 mutations that impair KATP channel trafficking” (The Journal of Biological Chemistry, 2025).

How the values were obtained:
Assay type in all cases: cell-based
[1] = target: T1, sulfonylurea receptor 1 (SUR1) (Homo sapiens, UniProt Q09428, W143R); test: pharmacochaperone rescue in cells at […] (western blot, Rb+ efflux)
T1 construct: gene ABCC8; human FLAG-tagged SUR1 (f-SUR1) coexpressed with human Kir6.2 in COSm6 cells; with Kir6.2 (KCNJ11)

[2] = target: T2, sulfonylurea receptor 1 (SUR1) (Homo sapiens, UniProt Q09428); test: Rb+ efflux inhibition in cells after […] overnight treatment and washout
T2 construct: gene ABCC8; human FLAG-tagged SUR1 (f-SUR1) coexpressed with human Kir6.2 in COSm6 cells; with Kir6.2 (KCNJ11)

[3] = target: T2, sulfonylurea receptor 1 (SUR1); test: inside-out patch-clamp dose-response
[4] = target: T3, sulfonylurea receptor 1 (SUR1) (Homo sapiens, UniProt Q09428, Y124F); test: inside-out patch-clamp dose-response
T3 construct: gene ABCC8; human FLAG-tagged SUR1 (f-SUR1) coexpressed with human Kir6.2 in COSm6 cells; with Kir6.2 (KCNJ11)
T3 sequence (Q09428 whole entry Y124F): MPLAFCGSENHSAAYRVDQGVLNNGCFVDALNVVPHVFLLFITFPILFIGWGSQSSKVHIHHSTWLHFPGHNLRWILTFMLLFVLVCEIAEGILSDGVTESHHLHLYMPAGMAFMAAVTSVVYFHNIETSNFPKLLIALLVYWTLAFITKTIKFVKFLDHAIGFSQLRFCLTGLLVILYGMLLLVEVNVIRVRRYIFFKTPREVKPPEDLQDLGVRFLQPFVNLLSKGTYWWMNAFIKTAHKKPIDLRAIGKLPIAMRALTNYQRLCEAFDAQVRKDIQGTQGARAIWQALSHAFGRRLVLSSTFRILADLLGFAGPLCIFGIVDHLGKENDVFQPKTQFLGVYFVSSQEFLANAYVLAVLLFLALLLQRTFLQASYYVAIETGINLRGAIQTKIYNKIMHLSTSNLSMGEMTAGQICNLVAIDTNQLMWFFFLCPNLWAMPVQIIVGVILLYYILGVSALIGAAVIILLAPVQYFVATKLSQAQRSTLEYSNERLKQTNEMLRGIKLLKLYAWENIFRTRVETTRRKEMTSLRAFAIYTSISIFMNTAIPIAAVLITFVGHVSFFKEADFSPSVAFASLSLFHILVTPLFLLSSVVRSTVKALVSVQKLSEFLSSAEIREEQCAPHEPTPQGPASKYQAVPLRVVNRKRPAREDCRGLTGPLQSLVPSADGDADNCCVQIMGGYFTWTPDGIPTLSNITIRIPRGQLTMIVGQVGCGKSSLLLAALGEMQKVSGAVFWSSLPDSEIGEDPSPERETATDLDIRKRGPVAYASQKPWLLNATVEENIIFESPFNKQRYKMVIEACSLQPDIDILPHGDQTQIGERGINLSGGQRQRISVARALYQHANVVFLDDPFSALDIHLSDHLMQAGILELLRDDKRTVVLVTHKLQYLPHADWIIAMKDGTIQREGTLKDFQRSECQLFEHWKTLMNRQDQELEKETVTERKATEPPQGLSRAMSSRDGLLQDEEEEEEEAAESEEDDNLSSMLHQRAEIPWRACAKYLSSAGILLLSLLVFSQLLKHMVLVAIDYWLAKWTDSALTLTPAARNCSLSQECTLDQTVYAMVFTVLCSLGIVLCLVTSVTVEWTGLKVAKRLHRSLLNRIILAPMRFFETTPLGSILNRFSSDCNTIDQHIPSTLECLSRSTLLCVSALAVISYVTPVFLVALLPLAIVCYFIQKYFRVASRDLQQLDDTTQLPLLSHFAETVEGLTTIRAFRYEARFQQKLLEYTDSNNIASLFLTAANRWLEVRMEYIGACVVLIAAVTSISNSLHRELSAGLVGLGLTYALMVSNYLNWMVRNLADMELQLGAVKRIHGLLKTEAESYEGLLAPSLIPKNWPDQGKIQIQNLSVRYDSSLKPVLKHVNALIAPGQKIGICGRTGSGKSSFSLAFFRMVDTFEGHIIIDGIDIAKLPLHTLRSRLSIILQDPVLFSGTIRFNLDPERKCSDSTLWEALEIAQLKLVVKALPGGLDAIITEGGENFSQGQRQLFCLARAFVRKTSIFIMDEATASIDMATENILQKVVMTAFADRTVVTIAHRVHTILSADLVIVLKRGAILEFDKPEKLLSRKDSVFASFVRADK
T3 sequence (Q14654 whole entry, further chain): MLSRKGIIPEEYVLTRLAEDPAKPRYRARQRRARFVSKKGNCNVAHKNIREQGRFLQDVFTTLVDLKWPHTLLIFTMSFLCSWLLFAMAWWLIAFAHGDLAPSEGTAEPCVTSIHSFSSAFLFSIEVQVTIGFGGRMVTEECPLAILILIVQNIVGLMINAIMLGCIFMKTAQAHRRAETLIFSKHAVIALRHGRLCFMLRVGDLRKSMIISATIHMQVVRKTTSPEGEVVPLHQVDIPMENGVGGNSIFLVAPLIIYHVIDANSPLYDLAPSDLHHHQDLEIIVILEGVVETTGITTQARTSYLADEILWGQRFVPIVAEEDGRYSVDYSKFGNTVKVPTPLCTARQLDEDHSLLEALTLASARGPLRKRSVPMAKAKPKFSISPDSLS

T2 sequence (Q09428 whole entry): as the sequence (Q09428 whole entry Y124F) above, with F124Y counted along it
T2 sequence (Q14654 whole entry partner): as the sequence (Q14654 whole entry, further chain) above
T1 sequence (Q09428 whole entry W143R): as the sequence (Q09428 whole entry Y124F) above, with F124Y, W143R counted along it
T1 sequence (Q14654 whole entry partner): as the sequence (Q14654 whole entry, further chain) above

CCCCNC(=O)NS(=O)(=O)c1ccc(C)cc1 [Tolb, tolbutamide]
pharmacochaperone rescue in cells at 200 μM (western blot, Rb+ efflux) [1]: N32K, P133R, W143R, and Y230C mutations showed clear albeit variable response to the three pharmacochaperones

COc1ccc(Cl)cc1C(=O)NCCc1ccc(S(=O)(=O)NC(=O)NC2CCCCC2)cc1 [GBC, glibenclamide]
Rb+ efflux inhibition in cells after 10 μM overnight treatment and washout [2]: This reduction is due to GBC inhibition of channels already present at the cell surface.

Nc1ncnc2c1ncn2[C@@H]1O[C@H](COP(=O)(O)OP(=O)(O)O)[C@@H](O)[C@H]1O [MgADP]
EC50 [3]: 62.2 ± 18.8 µM | EC50 [4]: 224 ± 47.9 µM
